Measured values published in ChEMBL document CHEMBL4334514, “A Near-Complete Series of Four Atropisomeric Jozimine A2-Type Naphthylisoquinoline Dimers with Antiplasmodial and Cytotoxic Activities and Related Alkaloids from Ancistrocladus abbreviatus” (J Nat Prod, 2019).

Key:
HT-29 = test: Cytotoxicity against human HT-29 cells assessed as reduction of cell viability measured after 16 hrs by crystal violet staining assay; type: functional, cell-based
Leishmania donovani = test: Antiprotozoal activity against Leishmania donovani MHOM/ET/67/L82 axenic amastigotes assessed as growth inhibition after 72 hrs by Alamar Blue dye-based fluorometric analysis; type: functional, organism-based
[1] = system: Trypanosoma brucei rhodesiense; test: Antiprotozoal activity against Trypanosoma brucei rhodesiense STIB900 trypomastigotes assessed as growth inhibition after 72 hrs by Alamar Blue dye-based fluorometric analysis; type: functional, organism-based
L6 = test: Cytotoxicity against rat L6 cells assessed as reduction in cell viability after 72 hrs by Alamar blue dye-based fluorometric analysis
Trypanosoma cruzi = test: Antiprotozoal activity against Trypanosoma cruzi Tulahuen C4 amastigotes infected in rat L6 cells assessed as growth inhibition after 96 by photometric analysis; type: functional, organism-based
Plasmodium falciparum [2] = test: Antiprotozoal activity against chloroquine-sensitive Plasmodium falciparum NF54 assessed as growth inhibition incubated for 48 hrs by [3H]-hypoxanthine incorporation assay; type: functional, organism-based
[3] = Selectivity index, ratio of IC50 for cytotoxicity against rat L6 cells to IC50 for antiprotozoal activity against Plasmodium falciparum NF54; type: toxicity, cell-based
MM1.S = test: Cytotoxicity against human MM1S cells assessed as reduction of cell viability incubated for overnight by MTT assay; type: functional, cell-based
HT-1080 = test: Cytotoxicity against human HT1080 cells assessed as reduction of cell viability measured after 16 hrs by crystal violet staining assay; type: functional, cell-based; conditions: HT-1080, 16 h
Plasmodium falciparum [4] = test: Antiprotozoal activity against asexual erythrocytic form of chloroquine-sensitive Plasmodium falciparum NF54 clone A1A9 assessed as growth inhibition incubated for 42 hrs by [3H]-hypoxanthine incorporation assay; type: functional, organism-based
[5] = Leishmania donovani, MHOM/ET/67/L82, 72 h
[6] = Trypanosoma cruzi, Tulahuen C4, L6

SMILES	IC50 [1] [µM]	IC50 (L6) [µM]	IC50 (Trypanosoma cruzi) [µM]	IC50 (Plasmodium falciparum [2]) [µM]	Ratio IC50 [3]	further results
COc1cccc2c(-c3ccc4c(c3O)[C@@H](C)N(C)[C@@H](C)C4)c(C)cc(OC)c12						IC50 (HT-29): Not Active
COc1cc(O)c(-c2c(C)cc(OC)c3c(OC)cccc23)c2c1[C@H](C)N[C@H](C)C2						IC50 (HT-29): Not Active
COc1cc(O)c2c(c1-c1c(C)cc(O)c3c(OC)cccc13)C[C@H](C)N[C@H]2C						IC50 (HT-29): Not Active
COc1cccc2c(-c3ccc4c(c3O)[C@@H](C)N[C@H](C)C4)c(C)c(-c3c(C)c(-c4ccc5c(c4O)[C@@H](C)N[C@H](C)C5)c4cccc(OC)c4c3O)c(O)c12 (stereo in doubt; 1a)	0.49	7.9	14.9	0.012	660	IC50 (Leishmania donovani; [5]): > 100 µM; IC50 (HT-29; read-out: IC50): > 50 µM
COc1cccc2c(-c3ccc4c(c3O)[C@@H](C)N[C@H](C)C4)c(C)c(-c3c(C)c(-c4ccc5c(c4O)[C@@H](C)N[C@H](C)C5)c4cccc(OC)c4c3O)c(O)c12 (stereo in doubt; 1b)	0.32	4.3	17.1	0.021	206	
COc1cccc2c(-c3ccc4c(c3O)[C@@H](C)N[C@H](C)C4)c(C)c(-c3c(C)c(-c4ccc5c(c4O)[C@@H](C)N[C@H](C)C5)c4cccc(OC)c4c3O)c(O)c12 (stereo in doubt; 1c)	0.16	2.3	8.1	0.055	41.6	IC50 (Leishmania donovani): 65.2 µM
COc1cccc2c(-c3ccc4c(c3O)[C@@H](C)N[C@H](C)C4)c(C)c(-c3c(C)c(-c4ccc5c(c4O)[C@@H](C)N[C@H](C)C5)c4cccc(OC)c4c3O)c(O)c12 (stereo in doubt; 1d) [listing 1 of 2 here]	0.82	15.9	13.7		11400	IC50 (Leishmania donovani): 80.2 µM; IC50 (HT-29; read-out: IC50): 12 µM; IC50 (MM1.S): 5 µM; IC50 (HT-1080): 9 µM
COc1cccc2c(-c3ccc4c(c3O)[C@@H](C)N[C@H](C)C4)c(C)c(-c3c(C)c(-c4ccc5c(c4O)[C@@H](C)N[C@H](C)C5)c4cccc(OC)c4c3O)c(O)c12 (stereo in doubt; 1d) [listing 2 of 2 here]						inhibition (HT-29): Dose-dependent effect
COc1cccc2c(-c3ccc4c(c3O)[C@@H](C)N[C@H](C)C4)c(C)cc(O)c12 (stereo in doubt; 4a)		9.1			13.7	IC50 (Leishmania donovani; [5]): > 100 µM; IC50 ([1]; Trypanosoma brucei, STIB900, 72 h): 6.1 µM; IC50 (Trypanosoma cruzi; [6]): 24.4 µM; IC50 (Plasmodium falciparum [2]; Plasmodium falciparum, NF54): 0.67 µM
COc1cccc2c(-c3ccc4c(c3O)[C@@H](C)N[C@H](C)C4)c(C)cc(O)c12 (stereo in doubt; 4b)	4.8	44.8	45.1	0.85	52.7	
O=C(Cn1ccnc1[N+](=O)[O-])NCc1ccccc1 [BENZNIDAZOLE]						IC50 (Trypanosoma cruzi; [6]): 2.6 µM
COc1cccc2c(-c3ccc4c(c3O)[C@@H](C)N[C@H](C)C4)c(C)cc(OC)c12 [DIONCOPHYLLINE A]						IC50 (Plasmodium falciparum [4]): 3.8 µM
CCCCCCCCCCCCCCCCOP(=O)([O-])OCC[N+](C)(C)C [MILTEFOSINE]						IC50 (Leishmania donovani; [5]): 0.8 µM
